Measurements: article PMC7834738 (Molecular Therapy, 2020)
Entries after “also recorded” stand apart in the source; their conditions may differ.

How the values were obtained:
[1] = tested on: SARS-CoV-2 (USA_WA1/2020); format: cell-based
[2] = tested on: SARS-CoV-2; conditions: single agent; cited from earlier work
[3] = tested on: Vero E6 cells; format: cell-based
[4] = tested on: SARS-CoV-2; conditions: cited from earlier work
[5] = tested on: COVID-19; conditions: 392 participants, outpatient setting; cited from earlier work
[6] = healthy adults; cited from earlier work

## N#C[C@@]1(c2ccc3c(N)ncnn23)O[C@H](CO)[C@@H](O)[C@H]1O [GS-441524]
[1]
  CPE: ≈ 0

## CCC(CC)COC(=O)[C@H](C)N[P@](=O)(OC[C@H]1O[C@@](C#N)(c2ccc3c(N)ncnn23)[C@H](O)[C@@H]1O)Oc1ccccc1 [Remdesivir]
[1]
  CPE: ≈ 0
  interaction with nitazoxanide in CPE assay: notable synergism

## CCN(CC)Cc1cc(Nc2ccnc3cc(Cl)ccc23)ccc1O [Amodiaquine]
[1]
  antagonism against GS-441524: not
  concentrations that significantly antagonized against remdesivir: 0.625 to 5 µM
  interaction with nitazoxanide in CPE assay: notable synergism
  interaction with remdesivir at high concentrations: synergize
  interaction with remdesivir in CPE assay: strong antagonistic effect; also recorded: antagonize
[2]
  fold less potent in Calu-3 (TMPRSS2+) than in Vero E6: > 10 fold

## OC(c1cc(C(F)(F)F)nc2c(C(F)(F)F)cccc12)C1CCCCN1 (centres unmarked) [Mefloquine]
[1]
  antagonism against GS-441524: not
  concentrations that significantly antagonized against remdesivir: 0.625 to 1.25 µM
  interaction with remdesivir at high concentrations: synergize
  interaction with remdesivir in CPE assay: strong antagonistic effect; also recorded: antagonize

## CCOC(=O)c1c(CSc2ccccc2)n(C)c2cc(Br)c(O)c(CN(C)C)c12 [Arbidol]
[1]
  concentrations showing antagonism against remdesivir: 123 to 370 nM
  concentrations synergizing with remdesivir: 3 to 10 µM
  interaction with remdesivir in CPE assay: antagonize

## CCOC(=O)C1=C[C@@H](OC(CC)CC)[C@H](NC(C)=O)[C@@H](N)C1 [Oseltamivir phosphate]
[1]
  antagonism with remdesivir: no antagonism

## CC(=O)Oc1ccccc1C(=O)Nc1ncc([N+](=O)[O-])s1 [Nitazoxanide]
[1]
  nitazoxanide concentrations with complete rescue of CPE: 0.625 to 5 µM
[3]
  cytotoxicity: not cytotoxic
  toxicity to Vero E6 cells: ~20%
[4]
  IC50: ~2 µM
[5]
  efficacy with respect to 7-day viral load and symptom resolution: modest efficacy
[6]
  tolerability: well tolerated
